From patent publication US6720346B2, “Thiazole benzamide derivatives and pharmaceutical compositions for inhibiting cell proliferation” (Agouron Pharmaceuticals, Inc., priority 2001, dated 2004)

What was measured:
CDK2/cyclin A = biological target: T1, CDK2/cyclin A (Homo sapiens, UniProt P24941); assay: Inhibition of CDK2/cyclin A retinoblastoma kinase activity (Ki; % inhibition); format: biochemical; settings: 0.03 μM compound
T1 construct: made in house; host or cells: CDK2: insect cells (baculovirus); cyclin A: E. coli
Outline: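 Radiometric filter assay of CDK2/proteolyzed cyclin A (baculovirus-expressed human CDK2, 10 or 19 nM) phosphorylating an Rb fragment with 25 μM [³²P/³³P]ATP in pH 7.4 HEPES, 2% DMSO, at 30 °C for 60 or 75 min under initial-rate conditions. Library compounds screened at 30 nM for % inhibition; apparent Ki from concentration series fit to competitive or tight-binding inhibition equations.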

human CDK4/cyclin D3 = biological target: T2, human CDK4/cyclin D3 (Homo sapiens, UniProt P11802); assay: Inhibition of CDK4/cyclin D retinoblastoma kinase activity (Ki; % inhibition); format: biochemical; settings: 0.03 μM compound
T2 construct: made in house; host or cells: insect cells co-infected with baculovirus vectors
T2 sequence (P11802 whole entry): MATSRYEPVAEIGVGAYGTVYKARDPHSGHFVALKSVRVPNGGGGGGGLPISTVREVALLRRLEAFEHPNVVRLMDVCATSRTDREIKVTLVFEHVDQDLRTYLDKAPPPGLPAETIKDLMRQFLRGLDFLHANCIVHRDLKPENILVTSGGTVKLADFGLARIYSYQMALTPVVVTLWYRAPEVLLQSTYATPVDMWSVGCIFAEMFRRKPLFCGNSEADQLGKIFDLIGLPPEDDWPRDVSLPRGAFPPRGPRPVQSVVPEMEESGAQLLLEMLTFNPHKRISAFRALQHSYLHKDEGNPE
T2 sequence (P30281 1-264 partner limits assumed): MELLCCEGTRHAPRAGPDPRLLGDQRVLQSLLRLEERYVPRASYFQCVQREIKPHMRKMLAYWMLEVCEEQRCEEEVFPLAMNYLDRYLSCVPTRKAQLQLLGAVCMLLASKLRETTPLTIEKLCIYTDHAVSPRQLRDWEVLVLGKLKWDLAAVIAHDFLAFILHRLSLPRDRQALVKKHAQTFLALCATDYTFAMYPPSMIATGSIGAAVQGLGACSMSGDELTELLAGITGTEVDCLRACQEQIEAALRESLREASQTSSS
Outline: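 Insect-cell-expressed CDK4 with truncated cyclin D3 (1-264), 5 nM, phosphorylating His-tagged Rb fragment (386-928) with 25 μM [32/33P]ATP at pH 7.4, 30 °C, 20 min (60 min for tight binders). Filter capture, phosphorimager read; % inhibition at 30 nM compound, Ki from competitive or tight-binding fits.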

HCT-116 cell line = assay: Inhibition of cell growth, MTT tetrazolium salt assay; format: cell-based; settings: HCT-116 cells; for HCT-116 % Inhibition at 0.1 μM: 0.1 μM compound; for HCT-116 % Inhibition at 0.25 μM: 0.25 μM compound
Outline: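 Cells in McCoy's 5A medium were given 4 h before compound addition in 0.5% (v/v) DMSO, then incubated 3–5 days at 37 °C, 5% CO2. After 4 h with 0.2 mg/mL MTT, DMSO-solubilized formazan was read at 540 nm; 50% and 90% growth-inhibitory concentrations came from semi-log plots against vehicle controls.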

| SMILES | CDK2 % Inhibition at 0.03 μM (CDK2/cyclin A) | CDK4 % Inhibition at 0.03 μM (human CDK4/cyclin D3) | HCT-116 % Inhibition at 0.1 μM (HCT-116 cell line) | HCT-116 % Inhibition at 0.25 μM (HCT-116 cell line) | CDK2 % Inhibition at 0.03 μM (CDK2/cyclin A; 0.03 µM) | CDK4 % Inhibition at 0.03 μM (human CDK4/cyclin D3; 0.03 µM) | HCT-116 % Inhibition at 0.1 μM (HCT-116 cell line; 0.1 µM) | HCT-116 % Inhibition at 0.25 μM (HCT-116 cell line; 0.25 µM) |
| --- | --- | --- | --- | --- | --- | --- | --- | --- |
| Nc1nc(Nc2ccc(C(=O)NCCC3=CCCCC3)cc2)sc1C(=O)c1c(F)cccc1F [Example G337] | 7% | 11% | 13% | 52% |  |  |  |  |
| Cc1ccc(CNC(=O)c2ccc(Nc3nc(N)c(C(=O)c4c(F)cccc4F)s3)cc2)cc1C [Example G338] | 31% | 27% | 18% | 54% |  |  |  |  |
| Nc1nc(Nc2ccc(C(=O)NCCCN(CCO)CCO)cc2)sc1C(=O)c1c(F)cccc1F [Example G339] | 6% | 34% | 9% | 48% |  |  |  |  |
| CCCCN(CCCCO)C(=O)c1ccc(Nc2nc(N)c(C(=O)c3c(F)cccc3F)s2)cc1 [Example G340] | −12% | 9% | 28% | 40% |  |  |  |  |
| Nc1nc(Nc2ccc(C(=O)Nc3ccc(Cl)cc3CO)cc2)sc1C(=O)c1c(F)cccc1F [Example G341] | −11% | 10% | 23% | 93% |  |  |  |  |
| Nc1nc(Nc2ccc(C(=O)NCCC3OCCO3)cc2)sc1C(=O)c1c(F)cccc1F [Example G342] | −10% | 13% | 20% | 55% |  |  |  |  |
| Nc1nc(Nc2ccc(C(=O)NCCc3cccnc3)cc2)sc1C(=O)c1c(F)cccc1F [Example G343] | 1% | 12% | 27% | 71% |  |  |  |  |
| CCOC(CNC(=O)c1ccc(Nc2nc(N)c(C(=O)c3c(F)cccc3F)s2)cc1)OCC [Example G344] | 25% | 18% | 24% | 50% |  |  |  |  |
| COc1ccc(CNC(=O)c2ccc(Nc3nc(N)c(C(=O)c4c(F)cccc4F)s3)cc2)cc1OC [Example G345] | −2% | 6% | 22% | 36% |  |  |  |  |
| Nc1nc(Nc2ccc(C(=O)NC3CCC(O)CC3)cc2)sc1C(=O)c1c(F)cccc1F (stereo not shown) [Example G346] | 11% | 11% | 15% | 52% |  |  |  |  |
| COc1ccc(NC(=O)c2ccc(Nc3nc(N)c(C(=O)c4c(F)cccc4F)s3)cc2)cc1F [Example G347] | 13% | 15% | 21% | 53% |  |  |  |  |
| CC(=O)N(C)C1CCN(C(=O)c2ccc(Nc3nc(N)c(C(=O)c4c(F)cccc4F)s3)cc2)C1 (stereo not shown) [Example G348] | −21% | 14% | 23% | 51% |  |  |  |  |
| Nc1nc(Nc2ccc(C(=O)NCCc3cccc(F)c3)cc2)sc1C(=O)c1c(F)cccc1F [Example G349] | −6% | 11% | 31% | 48% |  |  |  |  |
| Nc1nc(Nc2ccc(C(=O)N(CCCCO)Cc3ccccc3)cc2)sc1C(=O)c1c(F)cccc1F [Example G351] | 0% | −1% | 24% | 62% |  |  |  |  |
| Cc1ccc(NC(=O)c2ccc(Nc3nc(N)c(C(=O)c4c(F)cccc4F)s3)cc2)nc1 [Example G352] | 4% | 0% | 24% | 64% |  |  |  |  |
| Nc1nc(Nc2ccc(C(=O)NC3CCN(Cc4ccccc4)C3)cc2)sc1C(=O)c1c(F)cccc1F (stereo not shown) [Example G353] |  |  |  |  | 35% | 46% | 0% | 55% |
| COC(=O)c1ccc(NC(=O)c2ccc(Nc3nc(N)c(C(=O)c4c(F)cccc4F)s3)cc2)c(C)c1 [Example G354] | 9% | 3% | 31% | 60% |  |  |  |  |

| SMILES | CDK2 % Inhibition at 0.03 μM (CDK2/cyclin A) | CDK4 % Inhibition at 0.03 μM (human CDK4/cyclin D3) | HCT-116 % Inhibition at 0.1 μM (HCT-116 cell line) | HCT-116 % Inhibition at 0.25 μM (HCT-116 cell line) | CDK2 % Inhibition at 0.03 μM (CDK2/cyclin A; 0.03 µM) | CDK4 % Inhibition at 0.03 μM (human CDK4/cyclin D3; 0.03 µM) | HCT-116 % Inhibition at 0.1 μM (HCT-116 cell line; 0.1 µM) | HCT-116 % Inhibition at 0.25 μM (HCT-116 cell line; 0.25 µM) |
| --- | --- | --- | --- | --- | --- | --- | --- | --- |
| Nc1nc(Nc2ccc(C(=O)NCCc3ccc(F)cc3)cc2)sc1C(=O)c1c(F)cccc1F [Example G355] | 29% | 13% | 28% | 54% |  |  |  |  |
| CCCN(C(=O)c1ccc(Nc2nc(N)c(C(=O)c3c(F)cccc3F)s2)cc1)C(C)CC (stereo not shown) [Example G356] | −16% | 5% | 27% | 50% |  |  |  |  |
| CN(C)CCCN1CCN(C(=O)c2ccc(Nc3nc(N)c(C(=O)c4c(F)cccc4F)s3)cc2)CC1 [Example G357] | −14% | 17% | 17% | 88% |  |  |  |  |
| Nc1nc(Nc2ccc(C(=O)NCCCCCCO)cc2)sc1C(=O)c1c(F)cccc1F [Example G358] | −5% | 7% | 21% | 55% |  |  |  |  |
| Nc1nc(Nc2ccc(C(=O)N[C@H](CO)CC3CCCCC3)cc2)sc1C(=O)c1c(F)cccc1F [Example G359] | −7% | −5% | 25% | 69% |  |  |  |  |
| Cc1cccc(CNC(=O)c2ccc(Nc3nc(N)c(C(=O)c4c(F)cccc4F)s3)cc2)c1 [Example G360] | 31% | 9% | 18% | 73% |  |  |  |  |
| COc1ccc(CCN(C)C(=O)c2ccc(Nc3nc(N)c(C(=O)c4c(F)cccc4F)s3)cc2)cc1OC [Example G361] | −3% | −1% | 26% | 48% |  |  |  |  |
| COCCN1CCN(C(=O)c2ccc(Nc3nc(N)c(C(=O)c4c(F)cccc4F)s3)cc2)CC1 [Example G362] | 12% | 6% | 9% | 57% |  |  |  |  |
| CN(CCCNC(=O)c1ccc(Nc2nc(N)c(C(=O)c3c(F)cccc3F)s2)cc1)c1ccccc1 [Example G363] | 27% | 16% | 24% | 63% |  |  |  |  |
| CCCN(CCC#N)C(=O)c1ccc(Nc2nc(N)c(C(=O)c3c(F)cccc3F)s2)cc1 [Example G364] | −12% | 9% | 20% | 40% |  |  |  |  |
| Nc1nc(Nc2ccc(C(=O)NCCSCCO)cc2)sc1C(=O)c1c(F)cccc1F [Example G366] | 1% | 8% | 26% | 55% |  |  |  |  |
| Nc1nc(Nc2ccc(C(=O)NCC3COc4ccccc4O3)cc2)sc1C(=O)c1c(F)cccc1F (stereo not shown) [Example G367] | 38% | 15% | 22% | 71% |  |  |  |  |
| Nc1nc(Nc2ccc(C(=O)Nc3ccc(C(F)(F)F)cc3)cc2)sc1C(=O)c1c(F)cccc1F [Example G368] | 3% | −3% | 25% | 50% |  |  |  |  |
| Nc1nc(Nc2ccc(C(=O)Nc3cccc(-c4nnco4)c3)cc2)sc1C(=O)c1c(F)cccc1F [Example G369] | 26% | 8% | 21% | 36% |  |  |  |  |
| CN(CCC(O)c1ccccc1)C(=O)c1ccc(Nc2nc(N)c(C(=O)c3c(F)cccc3F)s2)cc1 (stereo not shown) [Example G370] | 22% | 17% | 19% | 52% |  |  |  |  |
| Nc1nc(Nc2ccc(C(=O)Nc3cccc(C(F)(F)F)c3)cc2)sc1C(=O)c1c(F)cccc1F [Example G371] | 11% | 7% | 27% | 53% |  |  |  |  |
| Nc1nc(Nc2ccc(C(=O)NCCc3c(Cl)cccc3Cl)cc2)sc1C(=O)c1c(F)cccc1F [Example G372] | −21% | 6% | 19% | 51% |  |  |  |  |
